Results as given in PMC11459959, “Discovery of new acetamide derivatives of 5-indole-1,3,4-oxadiazol-2-thiol as inhibitors of HIV-1 Tat-mediated viral transcription” (Antimicrobial Agents and Chemotherapy, 2024).

Columns and labels:
HIV-1NL4-3 [1] = test: HIV-1 infectivity in TZM-bl cells (F-Luc); assay type: cell-based; conditions: Human immunodeficiency virus 1, TZM-bl, 48 h, Table S1, WT virus, TZM-bl, fivefold serial dilutions, MOI 1, 48 h; read-out: EC50
Experimental: The TZM-bl cells (also referred to as JC53BL-13) expressing human CD4, CXCR4, and CCR5 carrying the F-Luc and lacZ genes downstream of the HIV-1 LTR promoter ([60]) were used to determine the inhibitory effect of the compounds on HIV-1 infection, as previously described ([11], [12], [61]). In brief, 1 × 10^4 cells were cultured in 96-well plates for 24 h and subsequently treated with compounds at the indicated concentrations. Without replacement of the culture medium, the cells were subsequently infected with the HIV-1NL4-3 wild-type or ARV-resistant HIV-1 strains at an MOI of 1 to determine the exact inhibitory effect of compounds on a single-round infection. After 48 h, the inhibitory effect of the compounds was determined using a Bright Glo luciferase assay kit (Promega) or β-Galactosidase Enzyme Assay kit (Promega). The infectivity data were presented as a percentage relative to the dimethyl sulfoxide (DMSO) control (vehicle). Cell viability was determined using the resazurin-based PrestoBlue Cell Viability Reagent (Thermo Fisher Scientific, Waltham, MA, USA) following the manufacturer’s instructions.

[2] = system: NNRTI-resistant HIV-1 strain 12241; test: microbe, parasite or virus in culture; assay type: cell-based; conditions: Human immunodeficiency virus 1, TZM-bl
Experimental: (§1) Fig 7 (A–C) TZM-bl cells (1 × 10^4 cells/well) cultured in a 96-well plate were treated with fivefold serial dilutions of the indicated compound or ARV for 1 h before infection with the HIV-1NL4-3 or ARV-resistant HIV-1 strains at an MOI of 1, respectively. At 48 h after infection, the EC50 values were determined using an F-Luc activity. The symbols represent the fold-change values of EC50 against each mutant virus relative to the wild-type (WT) virus. (D) PBMCs (5 × 10^4 cells/well) were infected with the HIV-1NL4-3 and PIs-resistant HIV-1 strain at an MOI of 0.1, respectively. Subsequently, the PBMCs were treated with 10-fold serial dilutions of the indicated compounds or PI. At 3 days after infection, the EC50 values on the viral replication were determined using a p24 […] assay kit. (E) The inhibitory kinetics for the WT and ARV-resistant viruses. TZM-bl cells infected with WT or ARV-resistant viruses were cultured upon fivefold serial dilutions of each compound for 2 days and the infectivity was determined using an F-Luc activity.
(§2) The Tzm-bl-derived dual Tat reporter; TZM-bl/Tat/Rluc (bl-DTR) cells were established from TZM-bl cells using two Dox-inducible lentiviral expression cassettes cloned with Flag-tagged Tat86 and the R-Luc gene, as described in our previous study ([11]). TZM-bl, A3.01, J1.1, and J-Lat 6.3 cells as well as the HIV-1 molecular clone pNL4-3, pNL(AD8), ARV-resistant HIV-1 strains, and HIV-1NL43-IRES-eGFP (pBR43IeG-nef^+, gifted by Dr. Frank Kirchhoff) ([52]) were provided by the National Institute of Health HIV Reagent Program (NIH, Bethesda, MD, USA). HeLa (CCL-2) and 293T (CRL-3216) cell lines were purchased from the American Type Culture Collection (ATCC, Manassas, VA, USA). The bl-DTR, TZM-bl, HeLa, and 293T cells were cultured in Dulbecco’s modified Eagle’s medium supplemented with 1% penicillin–streptomycin and 10% (vol/vol) heat-inactivated fetal bovine serum (all from Gibco-BRL, Gaithersburg, MD, USA), and 1 µg/mL of puromycin and 200 µg/mL of zeocin were additionally supplemented for the bl-DTR cells. PBMCs were purchased from AllCells (Alameda, CA, USA) and cultured as previously described ([12]). The information on ARV-resistant HIV-1 strains was described in previous reports as follows: NNRTI-resistant 12241 and 12243 ([53]); NRTI-resistant 7396, 7406, and 7407 ([54]); INSTI-resistant 11847 and 11849 ([55], [56]); and PI-resistant 11800 and 11803 ([57]). Each molecular HIV-1 clone was transfected to 293T cells, as previously described ([58]), to obtain infectious HIV-1 particles. Virus-containing cell culture supernatants were collected 3 days after transfection, and filtered through a 0.45-µm membrane filter (Millipore Sigma, Burlington, MA, USA) to remove cell debris. The viral titration was performed as described previously ([59]) with some minor modifications. In brief, 1 × 10^4 TZM-bl cells seeded in 96-well plates were infected with 200 µL of virus-containing medium diluted serially twofold. The incubation was for 2 days and the experiment was performed in triplicate; the infection time minimized the virus spread ([59]). The titration of the infectious viral particles was performed with a ß-Gal staining assay using the ßeta-Galactosidase Staining Kit (Mirus Bio, Madison, WI, USA) following the manufacturer’s protocols. In brief, the infected cells were washed with phosphate-buffered saline (PBS) and fixed using a Cell Fixative Working solution. The cells were washed with PBS and stained using the Cell Staining Working Solution containing X-gal. The infected blue-colored cells were counted under a microscope (100× magnification). The infectious virus titer was determined as a mean value of blue-colored cells count × dilution factor and used for determining the multiplicity of infection (MOI) in each infection experiment.

[3] = system: NNRTI-resistant HIV-1 strain 12243; test: microbe, parasite or virus in culture; assay type: cell-based; conditions: Human immunodeficiency virus 1, TZM-bl
Experimental: as §1, §2

[4] = system: HIV-1NL4-3 IRES-eGFP-nef+; test: eGFP-encoding HIV-1 infection of TZM-bl cells; assay type: cell-based; conditions: 9, 10, 13 1.5 μM, 20, 21, 22 4 μM, seliciclib 10 µM, triptolide 5 nM, DTG 2 nM, EFV 2 nM, 2 days
Experimental: Fig 4 (A) Comparison of the chemical structures between prominent derivatives (9, 10, and 13) and non-functional derivatives (20, 21 and 22). (B) bl-DTR cells were treated with serial dilutions of each compound upon Dox for 24 h. The activities of F-Luc and R-Luc were determined using the Dual-Glo -Luciferase assay system. (C) TZM-bl cells were infected with the HIV-1NL4-3 strain at an MOI of 1 upon treatment of compounds. At 48 h after infection, the viral infectivity and cell viability were determined as described above (Fig. 1). (D) TZM-bl cells were infected with HIV-1NL4-3 IRES-eGFP virus along with the compound treatment. Two days later, GFP-expressing cells were observed by fluorescence microscopy (100× magnification). […] At 48 h after infection, the β-gal activity indicating viral infectivity was determined using the β-gal Enzyme Assay kit. F-Luc activity and cell viability were determined as described above (Fig. 4C). (C and E) The dose-response curves show the relative activity compared with that of the DMSO vehicle (mean ± SD; n = 3).

HIV-1NL4-3 [5] = test: HIV-1 replication in A3.01 cells (p24 […]); assay type: cell-based; conditions: fivefold serial dilutions, 3 days
Experimental: The p24 level from the cell supernatant was subsequently determined using a p24 […] kit (PerkinElmer). In parallel, the cell viability was determined without viral infection because of the viral cytopathic effect. […] In parallel, cell viability was determined. The data (A and B) are presented as the mean ± SD (n = 3). (C) PBMCs (4 × 10^5) infected with HIV-AD8 at an MOI of 0.1 were treated with 1.5 µM of the compounds or ARVs for 3 days. The levels of p24 and cell viability were subsequently determined. (D) J1.1 cells were cultured with the compounds ([…]) under 50 ng/mL phorbol myristate acetate (PMA) treatment for 2 days. The level of p24 was subsequently determined. (E) J-Lat 6.3 cells were treated with the compounds (1.5 µM) under 1 µg/mL of PMA for 2 days. The GFP-positive cell population was analyzed using flow cytometry. The data are represented as a value relative to the DMSO-treated vehicle (D) and a percent of the GFP^+ cell population (E) as mean ± SD (n = 3).
The inhibitory effects of the compounds on viral replication were determined with some minor modifications, as previously described ([12], [62]). […] PBMCs (4 × 10^5) pre-activated with PHA-M for 3 days were washed with fresh media to remove excess PHA-M and subsequently infected with HIV-1NL4-3 or HIV-1AD8 or PIs-resistant HIV-1 strains as A3.01 infection. After infection, the infectious media were replaced with fresh media supplemented with international 10 units (IU)/mL of IL-2 and the indicated compounds. At 72 h after infection, the inhibitory effect of the compounds on viral replication was determined by measuring the p24 amount, an HIV capsid protein, using an HIV-1 p24 […] kit (PerkinElmer, Waltham, MA, USA). Cell viability was determined as described above. The inhibitory effects on provirus reversing in J1.1 and J-Lat 6.3 cells were determined as previously described ([12], [41], [63]) with some minor modifications. Briefly, 5 × 10^4 persistently HIV-1-infected J1.1 or J-Lat 6.3 cells were cultured in either the presence or absence of the compounds at a final concentration of 1.5 µM and treated with PMA (50 ng/mL for J1.1 cells, 1 µg/mL for J-Lat 6.3 cells). Two days after treatment, the levels of viral production were determined using p24 […] for J1.1 cells and flow cytometry analysis for GFP-expressing J-Lat 6.3 cells.

HIV-1 transcripts = test: RNA-seq of HIV-1 transcripts in infected TZM-bl cells; assay type: cell-based; conditions: HIV-1NL4-3 MOI 1, 1.5 µM, 2 days
Experimental: At 48 h after infection, the total RNA was extracted using the Maxwell RSC simplyRNA Cells Kit (Promega) according to the manufacturer’s instructions. RNA integrity was evaluated as RNA integrity number >6 using the Agilent 2100 Bio-analyzer (Agilent Technologies, Santa Clara, CA, USA). The cDNA libraries were constructed using TruSeq Stranded mRNA Sample Preparation Kit (Illumina, San Diego, CA, USA) according to the manufacturer’s instructions. Subsequently, these cDNA libraries were sequenced on the Illumina sequencing platform (NovaSeq6000; Illumina) and 150 bp paired-end reads were generated. Trimmomatic (v.0.32) was used to eliminate low-quality reads and adapter sequences from the sequencing data ([64]). Subsequently, the filtered reads were aligned to the HIV-1 genome (accession: AF324493.2) using STAR (v.2.3.0) ([65]). RT-qPCR analyses were performed as previously described ([66]) with some minor modifications. […] After infection, the infected cells were treated with 1.5 µM of the compounds. Forty-eight hours after treatment, the viral mRNA was isolated, converted to cDNA, and quantified through RT-qPCR on a 7500 Real-Time PCR System (Applied Biosystems) using the Power SYBR Green PCR Master Mix (Applied Biosystems). The comparative cycle threshold (Ct) method was used to analyze relative changes (Δ) in gene expression. The ΔCt values were determined using a 7500 Real-Time PCR System Software (Applied Biosystems) normalizing with gapdh, and the gene expression was calculated using the ΔΔCt-method. The primers used in this assay are the following: gag forward, 5′-[…]-3′, gag reverse, 5′-[…]-3′; gapdh forward, 5′-[…]-3′, gapdh reverse, 5′-[…]-3′.

[6] = system: proviral DNA integrated to the host chromosome; test: Integrated proviral DNA, nested Alu-PCR in A3.01 cells; assay type: cell-based, HIV-1; conditions: compounds 5 µM, 40 h after infection
Experimental: Fig 5 (A) Time-of-addition assay. […] Subsequently, the cells were treated with the compounds at the indicated time points (0, 1, 2, 4, 6, 8, 10, 12, 24, 30, 36, 42, and 48 h) after HIV-1 infection. The final concentrations of compounds are described in Materials and Methods. Viral activity according to the timing of drug addition was measured as F-Luc activity at 54 h after infection. The relative activities are represented as the mean ± SD (n = 3) compared with the activity observed 54 h post-infection. The relative time frames associated with each HIV-1 infection step are defined based on the time frame of susceptibility to the drug that blocks that particular infection step. […] At 16 h after infection, the viral reverse transcription (RT) product (viral cDNA) level was determined by quantitative real-time PCR (RT-qPCR) using gag and 18S rRNA primer sets and represented as the mean ± SD (n = 3) normalized against the amount of the 18S rRNA compared with the DMSO control. **P < 0.01 compared with the vehicle (DMSO). (C) An in vitro integrase (IN) assay was performed with 10 µM of the indicated compounds following the manufacturer’s protocol. **P < 0.01 compared with vehicle (DMSO). (D) A3.01 cells were infected with HIV-1 upon treatment with the indicated compounds (5 µM) and ARVs (EFV and DTG) as the experimental controls. At 40 h after infection, cellular chromosomal DNA was purified, and the integrated proviral DNA was detected through nested Alu-PCR amplification.
The activity of HIV-1 RT was determined as previously described with some minor modifications ([66][–][68]). In brief, HIV-1NL4-3 obtained from plasmid transfection was treated with DNase I (2.5 U/mL) for 2 h at 37°C to remove the plasmid DNA. […] Sixteen hours after infection, the cell cytosolic DNA was isolated under RNase A treatment, and the RT products (cytosolic viral cDNA) were quantified using RT-qPCR and the following primers: gag forward, 5′-[…]-3′, gag reverse, 5′-[…]-3′; 18S rRNA forward, 5′-[…]-3′, 18S rRNA reverse, 5′-[…]-3′. The relative levels of RT products were analyzed using the ΔΔCt-method, as described above. In vitro integrase activity was determined using an HIV-1 integrase assay kit (XpressBio, Frederick, MD, USA) as previously described ([12]). In brief, a 96-well plate coated with donor substrate DNA was blocked, and HIV-1 integrase was then added to the plate. Subsequently, the compounds and target substrate DNA were added to the plate and incubated for 30 min at 37°C. The plate was washed and subsequently incubated with horse radish peroxidase. Integrase activity was measured by the peroxidase activity with the substrate at an optical density of 450 nm. The experiment was performed in triplicates. Detection of integrated proviral DNA was performed as previously described ([69]) with some minor modifications. […] Chromosomal DNA was purified using the G-Spin DNA extraction kit (Intron Bio Tech, Seongnam-si, Gyeonggi-do, Republic of Korea). The integrated proviral HIV-1 DNA was detected by nested Alu-PCR amplification using the following primers: first round PCR, Alu forward, 5′-[…]-3′, pol reverse, 5′-[…]-3′; second round PCR, gag forward, 5′-[…]-3′, pol reverse. gapdh was used as the control gene.

SMILES	EC50 (HIV-1NL4-3 [1]) [µM]	EC50 [2] [µM]	EC50 [3] [µM]	inhibition of viral-expressed eGFP signal [4]	inhibition of viral replication (in words) (HIV-1NL4-3 [5])	read counts of transcripts mapped to the HIV-1 genome (HIV-1 transcripts)	nested Alu-PCR band for integrated proviral DNA [6]
Cc1ccnc2c1NC(=O)c1cccnc1N2C1CC1 [NVP, nevirapine, reference compound]	0.06	> 100	23.9 ± 2.3	–	–	–	–
Cc1[nH]c2ccc(-c3nnc(S(=O)(=O)C(C)C(=O)N4CCCCC4)o3)cc2c1C (stereo not drawn) [Compound 20, 2-((5-(2,3-Dimethyl-1H-indol-5-yl)-1,3,4-oxadiazol-2-yl)sulfonyl)-1-(piperidin-1-yl)propan-1-one]	–	–	–	did not	did not	not observed	–
Cc1[nH]c2ccc(-c3nnc(S(=O)(=O)C(C)C(=O)N4CCCC4)o3)cc2c1C (stereo not drawn) [Compound 21, 2-((5-(2,3-Dimethyl-1H-indol-5-yl)-1,3,4-oxadiazol-2-yl)sulfonyl)-1-(pyrrolidin-1-yl)propan-1-one]	–	–	–	did not	–	not observed	observed
